Assay results as given in paper PMC9150124, “Design of a Potent, Selective, and Brain-Penetrant Inhibitor of Wnt-Deactivating Enzyme Notum by Optimization of a Crystallographic Fragment Hit” (Journal of Medicinal Chemistry, 2022).

How the values were obtained:
Experiment in all cases: SelectScreen kinase profiling, SSBK ZLyte SP Technology
Type in all cases: biochemical
[1] = molecular target: kinase named in conditions (Homo sapiens, UniProt P00519, T315I); conditions: ABL1 T315I, 10 μM
Procedure: (§1) Kinase selectivity screening was performed by Thermo Fisher Scientific (Paisley, U.K.) in their SelectScreen Biochemical Kinase Profiling Service. Assay information and data are presented in the Supporting Information.
(§2) Kinase selectivity screening was performed by ThermoFisher Scientific (Paisley, U.K.) in their SelectScreenTM
(§3) Biochemical Kinase Profiling service .

[2] = molecular target: kinase named in conditions (Homo sapiens, UniProt Q8TD19); conditions: NEK9, 10 μM
Procedure: as §1, §2, §3

[3] = molecular target: kinase named in conditions (Homo sapiens, UniProt P08922); conditions: ROS1, 10 μM
Procedure: as §1, §2, §3

[4] = molecular target: kinase named in conditions (Homo sapiens, UniProt P08581); conditions: MET (cMet), 10 μM
Procedure: as §1, §2, §3

[5] = molecular target: kinase named in conditions (Homo sapiens, UniProt Q86V86); conditions: PIM3, 10 μM
Procedure: as §1, §2, §3

[6] = molecular target: kinase named in conditions (Homo sapiens, UniProt P31749); conditions: AKT1 (PKB alpha), 10 μM
Procedure: as §1, §2, §3

[7] = molecular target: kinase named in conditions (Homo sapiens, UniProt P21802, N549H); conditions: FGFR2 N549H, 10 μM
Procedure: as §1, §2, §3

[8] = molecular target: kinase named in conditions (Homo sapiens, UniProt O15146); conditions: MUSK, 10 μM
Procedure: as §1, §2, §3

[9] = molecular target: kinase named in conditions (Homo sapiens, UniProt Q13882); conditions: PTK6 (Brk), 10 μM
Procedure: as §1, §2, §3

[10] = molecular target: kinase named in conditions (Homo sapiens, UniProt Q06187); conditions: BTK, 10 μM
Procedure: as §1, §2, §3

[11] = molecular target: kinase named in conditions (Homo sapiens, UniProt P45983); conditions: MAPK8 (JNK1), 10 μM
Procedure: as §1, §2, §3

[12] = molecular target: kinase named in conditions (Homo sapiens, UniProt P00519, F317L); conditions: ABL1 F317L, 10 μM
Procedure: as §1, §2, §3

[13] = molecular target: kinase named in conditions (Homo sapiens, UniProt Q13043); conditions: STK4 (MST1), 10 μM
Procedure: as §1, §2, §3

[14] = molecular target: kinase named in conditions (Homo sapiens, UniProt P29322); conditions: EPHA8, 10 μM
Procedure: as §1, §2, §3

[15] = molecular target: kinase named in conditions (Homo sapiens, UniProt Q8IY84); conditions: NIM1K, 10 μM
Procedure: as §1, §2, §3

[16] = molecular target: kinase named in conditions (Homo sapiens, UniProt P23443); conditions: RPS6KB1 (p70S6K), 10 μM
Procedure: as §1, §2, §3

[17] = molecular target: kinase named in conditions (Homo sapiens, UniProt Q02156); conditions: PRKCE (PKC epsilon), 10 μM
Procedure: as §1, §2, §3

[18] = molecular target: kinase named in conditions (Homo sapiens, UniProt P06241); conditions: FYN, 10 μM
Procedure: as §1, §2, §3

[19] = molecular target: kinase named in conditions (Homo sapiens, UniProt Q16539); conditions: 10 μM
Procedure: as §1, §2, §3

[20] = molecular target: kinase named in conditions (Homo sapiens, UniProt P68400); conditions: CSNK2A1 (CK2 alpha 1), 10 μM
Procedure: as §1, §2, §3

[21] = molecular target: kinase named in conditions (Homo sapiens, UniProt P51957); conditions: NEK4, 10 μM
Procedure: as §1, §2, §3

[22] = molecular target: kinase named in conditions (Homo sapiens, UniProt Q96RG2); conditions: PASK, 10 μM
Procedure: as §1, §2, §3

[23] = molecular target: kinase named in conditions (Homo sapiens, UniProt Q9UQB9); conditions: AURKC (Aurora C), 10 μM
Procedure: as §1, §2, §3

[24] = molecular target: kinase named in conditions (Homo sapiens, UniProt Q8N568); conditions: DCAMKL2 (DCK2), 10 μM
Procedure: as §1, §2, §3

[25] = molecular target: kinase named in conditions (Homo sapiens, UniProt P51812); conditions: RPS6KA3 (RSK2), 10 μM
Procedure: as §1, §2, §3

[26] = molecular target: kinase named in conditions (Homo sapiens, UniProt P42679); conditions: MATK (HYL), 10 μM
Procedure: as §1, §2, §3

[27] = molecular target: kinase named in conditions (Homo sapiens, UniProt P08581, M1250T); conditions: MET M1250T, 10 μM
Procedure: as §1, §2, §3

[28] = molecular target: kinase named in conditions (Homo sapiens, UniProt P27361); conditions: MAPK3 (ERK1), 10 μM
Procedure: as §1, §2, §3

[29] = molecular target: kinase named in conditions (Homo sapiens, UniProt P09769); conditions: FGR, 10 μM
Procedure: as §1, §2, §3

[30] = molecular target: kinase named in conditions (Homo sapiens, UniProt Q14680); conditions: MELK, 10 μM
Procedure: as §1, §2, §3

[31] = molecular target: kinase named in conditions (Homo sapiens, UniProt Q15759); conditions: MAPK11 (p38 beta), 10 μM
Procedure: as §1, §2, §3

[32] = molecular target: kinase named in conditions (Homo sapiens, UniProt P78368); conditions: CSNK1G2 (CK1 gamma 2), 10 μM
Procedure: as §1, §2, §3

[33] = molecular target: kinase named in conditions (Homo sapiens, UniProt Q02750); conditions: MAP2K1 (MEK1), 10 μM
Procedure: as §1, §2, §3

[34] = molecular target: kinase named in conditions (Homo sapiens, UniProt P49840); conditions: GSK3A (GSK3 alpha), 10 μM
Procedure: as §1, §2, §3

Chain of kinase named in conditions (Homo sapiens, UniProt Q16539) (Q16539 whole entry): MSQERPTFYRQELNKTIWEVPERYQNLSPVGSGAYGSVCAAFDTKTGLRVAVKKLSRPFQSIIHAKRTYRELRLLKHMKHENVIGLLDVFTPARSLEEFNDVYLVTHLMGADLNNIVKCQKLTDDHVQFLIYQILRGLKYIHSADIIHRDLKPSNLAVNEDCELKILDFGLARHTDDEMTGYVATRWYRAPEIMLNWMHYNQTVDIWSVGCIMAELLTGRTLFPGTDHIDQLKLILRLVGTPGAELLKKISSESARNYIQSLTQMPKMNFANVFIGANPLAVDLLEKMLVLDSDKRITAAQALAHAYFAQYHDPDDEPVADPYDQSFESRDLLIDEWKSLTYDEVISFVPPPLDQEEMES
Chain of kinase named in conditions (Homo sapiens, UniProt Q02156) (Q02156 whole entry): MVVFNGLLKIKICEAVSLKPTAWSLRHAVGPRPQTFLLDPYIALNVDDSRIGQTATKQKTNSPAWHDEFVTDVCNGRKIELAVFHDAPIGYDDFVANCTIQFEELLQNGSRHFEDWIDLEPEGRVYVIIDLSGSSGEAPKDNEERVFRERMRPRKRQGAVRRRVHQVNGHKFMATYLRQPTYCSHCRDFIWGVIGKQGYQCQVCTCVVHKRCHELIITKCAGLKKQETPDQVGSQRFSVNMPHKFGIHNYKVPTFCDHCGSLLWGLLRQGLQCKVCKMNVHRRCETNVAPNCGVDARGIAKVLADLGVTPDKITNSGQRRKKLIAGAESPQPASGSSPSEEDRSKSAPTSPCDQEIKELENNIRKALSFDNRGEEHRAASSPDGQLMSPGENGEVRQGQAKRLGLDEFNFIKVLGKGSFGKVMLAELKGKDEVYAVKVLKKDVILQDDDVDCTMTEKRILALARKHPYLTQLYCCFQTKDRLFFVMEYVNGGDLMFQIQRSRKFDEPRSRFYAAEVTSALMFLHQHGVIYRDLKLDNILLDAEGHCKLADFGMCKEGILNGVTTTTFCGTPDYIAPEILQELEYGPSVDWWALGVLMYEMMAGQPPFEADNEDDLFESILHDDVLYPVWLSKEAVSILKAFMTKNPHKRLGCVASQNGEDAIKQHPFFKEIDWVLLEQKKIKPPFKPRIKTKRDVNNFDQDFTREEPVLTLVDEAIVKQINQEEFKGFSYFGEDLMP
Chain of kinase named in conditions (Homo sapiens, UniProt Q13882) (Q13882 whole entry): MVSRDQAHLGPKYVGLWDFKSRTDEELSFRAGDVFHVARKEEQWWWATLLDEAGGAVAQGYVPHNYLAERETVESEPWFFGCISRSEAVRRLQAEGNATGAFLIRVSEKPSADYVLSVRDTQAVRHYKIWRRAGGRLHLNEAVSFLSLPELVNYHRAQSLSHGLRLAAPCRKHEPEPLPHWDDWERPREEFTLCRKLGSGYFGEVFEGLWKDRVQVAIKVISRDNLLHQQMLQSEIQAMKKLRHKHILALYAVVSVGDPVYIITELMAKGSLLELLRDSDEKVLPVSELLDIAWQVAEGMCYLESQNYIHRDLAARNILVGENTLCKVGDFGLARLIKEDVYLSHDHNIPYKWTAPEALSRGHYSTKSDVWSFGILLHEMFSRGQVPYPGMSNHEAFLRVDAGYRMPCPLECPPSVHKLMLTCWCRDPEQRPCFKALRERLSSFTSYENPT
Chain of kinase named in conditions (Homo sapiens, UniProt Q15759) (Q15759 whole entry): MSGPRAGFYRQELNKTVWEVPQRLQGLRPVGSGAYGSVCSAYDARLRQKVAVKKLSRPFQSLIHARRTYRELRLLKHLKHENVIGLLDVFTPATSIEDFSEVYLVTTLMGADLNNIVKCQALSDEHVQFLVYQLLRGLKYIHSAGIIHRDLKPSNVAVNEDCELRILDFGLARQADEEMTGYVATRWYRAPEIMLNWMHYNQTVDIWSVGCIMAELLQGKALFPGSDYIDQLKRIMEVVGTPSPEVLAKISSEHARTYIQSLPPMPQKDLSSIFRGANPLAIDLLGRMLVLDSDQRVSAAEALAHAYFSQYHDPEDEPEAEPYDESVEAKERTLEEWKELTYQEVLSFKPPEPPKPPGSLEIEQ
Chain of kinase named in conditions (Homo sapiens, UniProt P51812) (P51812 whole entry): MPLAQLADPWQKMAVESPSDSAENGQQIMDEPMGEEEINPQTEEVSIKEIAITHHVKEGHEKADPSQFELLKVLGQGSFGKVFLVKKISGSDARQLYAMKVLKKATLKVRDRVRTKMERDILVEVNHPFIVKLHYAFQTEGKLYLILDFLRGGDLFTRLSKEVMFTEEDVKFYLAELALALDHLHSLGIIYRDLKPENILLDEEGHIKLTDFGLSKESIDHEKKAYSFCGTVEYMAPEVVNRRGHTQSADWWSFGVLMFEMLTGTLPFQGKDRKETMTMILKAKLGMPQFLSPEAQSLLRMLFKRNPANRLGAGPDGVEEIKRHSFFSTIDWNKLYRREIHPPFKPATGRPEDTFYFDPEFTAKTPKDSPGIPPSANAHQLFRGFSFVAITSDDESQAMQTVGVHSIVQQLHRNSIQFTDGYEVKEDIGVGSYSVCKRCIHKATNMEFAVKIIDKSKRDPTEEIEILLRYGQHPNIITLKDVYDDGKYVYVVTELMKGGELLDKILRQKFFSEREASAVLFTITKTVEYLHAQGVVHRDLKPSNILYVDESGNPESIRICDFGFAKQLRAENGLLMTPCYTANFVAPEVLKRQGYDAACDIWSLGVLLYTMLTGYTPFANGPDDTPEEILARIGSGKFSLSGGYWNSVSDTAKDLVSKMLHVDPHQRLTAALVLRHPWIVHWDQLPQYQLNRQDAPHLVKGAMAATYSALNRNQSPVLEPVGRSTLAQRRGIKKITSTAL
Chain of kinase named in conditions (Homo sapiens, UniProt Q96RG2) (Q96RG2 whole entry): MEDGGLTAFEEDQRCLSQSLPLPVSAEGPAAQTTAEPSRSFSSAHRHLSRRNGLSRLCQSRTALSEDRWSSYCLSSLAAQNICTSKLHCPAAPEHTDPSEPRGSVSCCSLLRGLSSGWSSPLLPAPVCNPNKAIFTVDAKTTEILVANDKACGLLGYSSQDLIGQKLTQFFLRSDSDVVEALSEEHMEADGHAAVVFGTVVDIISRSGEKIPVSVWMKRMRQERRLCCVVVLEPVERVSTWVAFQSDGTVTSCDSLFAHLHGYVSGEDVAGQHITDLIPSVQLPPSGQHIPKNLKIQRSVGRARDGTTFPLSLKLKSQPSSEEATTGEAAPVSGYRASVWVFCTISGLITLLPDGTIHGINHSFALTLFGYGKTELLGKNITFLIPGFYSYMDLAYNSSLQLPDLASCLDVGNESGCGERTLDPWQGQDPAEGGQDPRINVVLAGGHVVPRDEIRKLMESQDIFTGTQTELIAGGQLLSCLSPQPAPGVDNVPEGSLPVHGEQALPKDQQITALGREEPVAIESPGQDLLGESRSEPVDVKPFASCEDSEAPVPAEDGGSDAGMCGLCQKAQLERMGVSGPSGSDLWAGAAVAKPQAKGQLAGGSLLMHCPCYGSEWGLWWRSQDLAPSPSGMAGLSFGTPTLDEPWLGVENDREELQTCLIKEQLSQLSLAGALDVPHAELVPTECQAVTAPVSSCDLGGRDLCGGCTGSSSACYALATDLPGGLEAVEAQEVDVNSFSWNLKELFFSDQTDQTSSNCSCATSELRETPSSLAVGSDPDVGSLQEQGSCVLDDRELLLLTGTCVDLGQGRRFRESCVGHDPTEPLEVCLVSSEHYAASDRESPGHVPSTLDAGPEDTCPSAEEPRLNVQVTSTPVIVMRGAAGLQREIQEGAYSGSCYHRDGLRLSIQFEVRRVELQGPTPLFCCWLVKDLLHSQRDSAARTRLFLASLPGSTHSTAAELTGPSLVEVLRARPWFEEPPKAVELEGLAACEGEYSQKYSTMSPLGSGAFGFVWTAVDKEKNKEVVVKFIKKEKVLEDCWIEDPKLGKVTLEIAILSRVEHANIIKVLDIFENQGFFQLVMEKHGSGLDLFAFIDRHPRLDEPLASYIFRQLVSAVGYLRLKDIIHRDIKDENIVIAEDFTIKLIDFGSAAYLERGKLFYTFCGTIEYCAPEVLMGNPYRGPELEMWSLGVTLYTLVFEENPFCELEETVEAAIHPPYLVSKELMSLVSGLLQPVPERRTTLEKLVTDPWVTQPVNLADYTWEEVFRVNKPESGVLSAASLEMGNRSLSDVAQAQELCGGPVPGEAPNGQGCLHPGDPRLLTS
Chain of kinase named in conditions (Homo sapiens, UniProt Q13043) (Q13043 whole entry): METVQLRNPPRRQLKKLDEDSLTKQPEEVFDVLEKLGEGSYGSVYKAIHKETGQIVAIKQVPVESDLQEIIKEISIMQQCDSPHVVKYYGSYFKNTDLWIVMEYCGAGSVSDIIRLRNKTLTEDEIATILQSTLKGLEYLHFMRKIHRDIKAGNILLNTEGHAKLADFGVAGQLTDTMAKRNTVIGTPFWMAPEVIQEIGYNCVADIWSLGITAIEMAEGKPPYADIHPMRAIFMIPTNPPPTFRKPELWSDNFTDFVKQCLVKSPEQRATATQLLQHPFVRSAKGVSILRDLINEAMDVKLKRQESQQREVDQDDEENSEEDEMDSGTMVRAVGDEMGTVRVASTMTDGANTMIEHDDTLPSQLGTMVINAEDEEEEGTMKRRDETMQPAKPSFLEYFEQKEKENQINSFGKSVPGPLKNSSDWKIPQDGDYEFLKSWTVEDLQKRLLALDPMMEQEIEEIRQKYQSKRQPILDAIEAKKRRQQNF
Chain of kinase named in conditions (Homo sapiens, UniProt P45983) (P45983 whole entry): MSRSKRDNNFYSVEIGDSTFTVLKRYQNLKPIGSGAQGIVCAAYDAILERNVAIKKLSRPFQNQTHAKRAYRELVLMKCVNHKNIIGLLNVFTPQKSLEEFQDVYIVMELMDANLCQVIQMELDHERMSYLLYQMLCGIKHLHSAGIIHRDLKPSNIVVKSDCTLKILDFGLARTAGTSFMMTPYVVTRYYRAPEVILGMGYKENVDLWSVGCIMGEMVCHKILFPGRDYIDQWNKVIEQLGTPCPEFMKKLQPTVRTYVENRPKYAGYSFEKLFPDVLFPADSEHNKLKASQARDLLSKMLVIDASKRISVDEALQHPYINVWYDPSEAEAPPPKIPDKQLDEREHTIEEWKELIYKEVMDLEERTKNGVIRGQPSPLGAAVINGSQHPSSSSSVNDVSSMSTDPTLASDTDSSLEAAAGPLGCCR

With `FC(F)(F)c1c(Cl)ccc(-n2ccnn2)c1Cl` [8l, 1-(2,4-Dichloro-3-(trifluoromethyl)phenyl)-1H-1,2,3-triazole] the inhibition at 10 µM [1] was 0%, the inhibition at 10 µM [2] was -3% and the inhibition at 10 µM [3] was 9%. For the same molecule, the inhibition at 10 µM [4] was 8%, the inhibition at 10 µM [5] was 6% and the inhibition at 10 µM [6] was 7%. It also gave an inhibition at 10 µM [7] of 17%, an inhibition at 10 µM [8] of -4% and an inhibition at 10 µM [9] of 6%. For the same molecule, the inhibition at 10 µM [10] was 21%, the inhibition at 10 µM [11] was 6% and the inhibition at 10 µM [12] was 16%. The inhibition at 10 µM [13] was 1%, the inhibition at 10 µM [14] was 2% and the inhibition at 10 µM [15] was 5%. The inhibition at 10 µM [16] was 9%, the inhibition at 10 µM [17] was -1% and the inhibition at 10 µM [18] was 0%. It also gave an inhibition at 10 µM ([19]; MAPK14 (p38 alpha) Direct) of -3%, an inhibition at 10 µM ([19]; MAPK14 (p38 alpha)) of -1% and an inhibition at 10 µM [20] of 5%. For the same molecule, the inhibition at 10 µM [21] was 3%, the inhibition at 10 µM [22] was -1% and the inhibition at 10 µM [23] was 19%. It also gave an inhibition at 10 µM [24] of 1%, an inhibition at 10 µM [25] of -3% and an inhibition at 10 µM [26] of -11%. For the same molecule, the inhibition at 10 µM [27] was 3%, the inhibition at 10 µM [28] was 4% and the inhibition at 10 µM [29] was 4%. For the same molecule, the inhibition at 10 µM [30] was 12%, the inhibition at 10 µM [31] was 6% and the inhibition at 10 µM [32] was -2%. It also gave an inhibition at 10 µM [33] of -5% and an inhibition at 10 µM [34] of 7%.
